# In the supplement of paper PMC10307832:
# Tests used:
# Experiment in all cases: relative viability (nuclei count vs DMSO), 5 days (fraction); higher = more cells survive
# [1] = compound: COc1cc2ncn(-c3cc(OCc4ccccc4C(F)(F)F)c(C(N)=O)s3)c2cc1OC + COc1cc2c(Oc3ccc(NC(=O)C4(C(=O)Nc5ccc(F)cc5)CC4)cc3F)ccnc2cc1OCCCN1CCOCC1 [Foretinib] (partner 0.25 µM)
# Procedure, shortened: (§1)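 After 5 days of treatment, lung cancer cells in 1536-well plates were fixed and stained in a single step (final 0.05% Triton X-100, 1% formaldehyde, 1 ug/ml Hoechst) and their nuclei counted on 4× images. Treatment had been applied by pin tool the day after seeding as one drug alone or as a fixed anchor-drug dose with five library-drug doses (not always all listed) in √10 steps. Relative viability is the nuclei count of treated wells divided by that of vehicle wells, and values are medians of duplicate plates.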
# [2] = compound: COc1cc2ncn(-c3cc(OCc4ccccc4C(F)(F)F)c(C(N)=O)s3)c2cc1OC + O=C(CCCCCCC(=O)Nc1ccccc1)NO [Vorinostat] (partner 1 µM)
# Procedure, shortened: as §1
# [3] = compound: COc1cc2ncn(-c3cc(OCc4ccccc4C(F)(F)F)c(C(N)=O)s3)c2cc1OC + NC(=O)Nc1cc(-c2cccc(F)c2)sc1C(=O)N[C@H]1CCCNC1 [AZD7762] (partner 0.2 µM)
# Procedure, shortened: as §1
# [4] = compound: COc1cc2ncn(-c3cc(OCc4ccccc4C(F)(F)F)c(C(N)=O)s3)c2cc1OC + CS(=O)(=O)N1CCN(Cc2cc3nc(-c4cccc5[nH]ncc45)nc(N4CCOCC4)c3s2)CC1 [Pictilisib] (partner 1 µM)
# Procedure, shortened: as §1
Cell Line,relative viability ([1]; first compound 0.05 µM),relative viability ([1]; first compound 0.1581 µM),relative viability ([1]; first compound 0.5 µM),relative viability ([1]; first compound 1.581 µM),relative viability ([1]; first compound 5 µM),relative viability ([2]; first compound 0.05 µM),relative viability ([2]; first compound 0.1581 µM),relative viability ([2]; first compound 0.5 µM),relative viability ([2]; first compound 1.581 µM),relative viability ([2]; first compound 5 µM),relative viability ([3]; first compound 0.05 µM),relative viability ([3]; first compound 0.1581 µM),relative viability ([3]; first compound 0.5 µM),relative viability ([3]; first compound 1.581 µM),relative viability ([3]; first compound 5 µM),relative viability ([4]; first compound 0.05 µM),relative viability ([4]; first compound 0.1581 µM),relative viability ([4]; first compound 0.5 µM),relative viability ([4]; first compound 1.581 µM),relative viability ([4]; first compound 5 µM)
NCI-H441,1.03,0.871,0.266,0.249,0.226,0.446,0.827,0.195,0.174,0.19,1.13,0.73,0.437,0.198,0.171,0.652,0.352,0.163,0.13,0.131
NCI-H1793,0.925,0.825,0.506,0.24,0.164,0.553,0.42,0.328,0.17,0.113,0.463,0.407,0.301,0.148,0.103,0.272,0.308,0.179,0.192,0.228
NCI-H23,1.02,0.759,0.564,0.123,0.138,0.519,0.284,0.0883,0.121,0.0755,0.196,0.261,0.199,0.0923,0.0935,0.451,0.339,0.228,0.148,0.117
HARA,1.03,0.886,0.734,0.11,0.0673,0.358,0.421,0.237,0.0932,0.0592,0.301,–,0.201,0.173,0.112,0.443,0.38,0.274,0.0824,0.0556
NCI-H1792,–,–,–,–,–,–,–,–,–,–,0.61,0.71,0.472,0.0325,0.0304,0.278,0.254,0.158,0.0865,0.109
NCI-H1703,0.308,–,0.303,–,0.15,–,–,–,–,–,0.141,0.131,0.104,0.119,0.104,0.256,0.227,0.2,0.126,0.172
NCI-H2342,1.13,0.951,0.876,0.475,0.567,0.917,0.744,0.595,0.693,0.527,0.593,0.476,0.374,0.38,0.425,–,–,–,–,–
CAL-12T,0.981,0.974,0.907,0.193,0.216,0.674,0.558,0.268,0.141,0.159,0.555,0.598,0.514,0.239,0.199,0.351,0.389,0.323,0.186,0.177
NCI-H838,1.17,1.09,0.832,0.455,0.139,0.577,0.801,0.477,0.13,0.132,0.968,0.916,0.73,0.609,0.581,0.514,0.519,0.478,0.14,0.0851
NCI-H2085,0.931,1,0.566,0.294,0.31,0.722,0.796,0.541,0.386,0.302,0.969,0.964,0.862,0.39,0.248,0.47,0.45,0.463,0.273,0.273
NCI-H1395,0.932,1.01,0.686,0.448,0.556,0.711,0.688,0.466,0.354,0.25,0.454,0.396,0.377,0.323,0.316,0.609,0.686,0.461,0.635,0.438
NCI-H1648,–,–,–,–,–,0.37,0.523,0.203,0.267,0.186,0.699,0.721,0.637,0.25,0.214,–,–,–,–,–
NCI-H460,1.07,0.938,0.499,0.028,0.0214,0.745,0.723,0.0471,0.0166,0.0169,0.63,0.654,0.554,0.0553,0.0434,0.401,0.206,0.323,0.0526,0.183
A549,0.979,1.03,0.423,0.0316,0.0318,–,–,–,–,–,–,–,–,–,–,0.606,0.55,0.0875,0.0523,0.0706
IA-LM,1.16,0.987,0.328,0.0521,0.0505,0.916,0.803,0.241,0.0678,0.0714,–,–,–,–,–,0.46,0.262,0.0711,0.0659,0.0766
EKVX,0.779,0.516,0.603,–,0.46,0.745,0.836,0.477,0.363,0.167,0.841,0.48,0.655,0.416,0.33,0.42,0.516,0.427,0.262,0.291
ChaGo-K-1,0.915,0.89,0.71,0.266,0.172,0.775,0.721,0.629,0.232,0.162,0.896,0.853,0.882,0.237,0.16,0.676,0.419,0.594,0.322,0.248
NCI-H1755,0.583,0.896,0.635,0.362,0.315,0.781,0.738,0.631,0.447,0.354,0.431,0.525,0.397,0.373,0.259,0.457,0.371,0.355,0.203,0.169
